B1: G-CSF: granulocyte colony stimulating factor, stem cell mobilizer (protein, UniProt P09919 31-207, looked up)
Granulocyte …: TPLGPASSLPQSFLLKCLEQVRKIQGDGAALQEKLVSECATYKLCHPEELVLLGHSLGIPWAPLSSCPSQALQLAGCLSQLHSGLFLYQGLLQALEGISPELGPTLDTLQLDVADFATTIWQQMEELGMAPALQPTQGAMPAFASAFQRRAGGVLVASHLQSFLEVSYRVLRHLAQP

Columns and labels:
CD34+ cells / HSCs = settings: healthy volunteers; cited from earlier work
[1] = tested on: CD34+ HSCs / peripheral white blood cells; assay: HSC mobilization in rats, flow cytometric analysis of peripheral blood; assay type: in vivo; settings: for peripheral CD34+ absolute count / total lymphocyte count: single dose; for average total WBC: single sc dose (plerixafor 2 mg/kg, G-CSF 300 μg/kg), n=3
Description: Rats (n=3 per treatment group) were administered a single dose of plerixafor (2 mg/kg), G-CSF (300 μg/kg) or both. In FIG. 2A, peripheral total white blood cell (WBC) count, total lymphocytes, and CD34^+ cells were measured in […] by FACS analysis at 1 hr and 6 hrs after injection. […] See Mozobil (plerixafor injection) Product Monograph 2009 (Genzyme Corporation, Cambridge, Mass.).
Mobilization of HSCs. For HSC mobilization, plerixafor and G-CSF were administered by subcutaneous injection at weight-based doses consistent with those that have proven effective in human clinical trials or as has been used previously by the present inventors (plerixafor, 2 mg/kg/dose; G-CSF 300 μg/kg/dose). Plerixafor and G-CSF were administered 12-hours following CCl4 injection, in treatment groups comprised of eight to ten animals. Control treatment groups were administered an injection with an equivalent volume of saline.
Flow Cytometric Analysis of Peripheral Blood. Following HSC mobilization, animals were sacrificed at either one or six hours post treatment and blood was collected. Leukocyte suspensions (1×10^6) of peripheral blood were analyzed for CD34, Thy-1 and c-Kit expression. Nonspecific antibody binding was blocked with mouse and donkey serum (Sigma) for 30 minutes. The cells were incubated with Alexa Fluor 647 conjugated mouse anti-rat CD34 (1:10) (Santa Cruz Biotechnology), fluorescein isothiocyanate (FITC)-conjugated mouse anti-rat CD90 (Thy-1, 1:100) (BD Pharmingen), and rabbit anti-rat c-Kit (1:100) (Santa Cruz Biotechnology) for 45 minutes at 4° C., followed by phycoerythrin (PE)-conjugated donkey anti-rabbit IgG (1:200) (eBioscience) for 30 minutes at 4° C. The CD34, Thy-1 and c-Kit positive cells were counted by flow cytometry using CELLQuest software (Becton-Dickinson).

[2] = tested on: human immunodeficiency virus (HIV); settings: cited from earlier work
[3] = tested on: CD34+ stem cells in peripheral blood; settings: pigs
Description: The dosage of plerixafor used in swine transplants was based on the experiments in rats. It is possible that the effective dosage of plerixafor will differ among species. The efficacy of plerixafor was tested in non-transplanted pigs and blood cell count and flow cytometric analysis were used to measure CD34^+ stem cells in peripheral blood.

CXCR4 receptor = settings: mutated receptor (not named); cited from earlier work
C57BL/6 mice = assay: Rodent model of acute liver failure: CCl4 dose finding (survival, serum transaminases); assay type: in vivo
Description: FIG. 1A-1C describes mortality and hepatic injury after injection of carbon tetrachloride (CCl4). FIG. 1A is a graph showing percent survival over four days among groups (n=10) of mice administered intraperitoneal injections of CCL4 at doses of 2 ml/kg (solid line), 3 ml/kg (dashed line), 4 ml/kg (diamond markers), or 4.5 ml/kg (circle markers). FIG. 1B is a graph displaying peak liver function test (LF) results, specifically, serum aspartate transaminase (AST) (dark bars) and alanine transaminase (ALT) (light bars) levels in mice (n=2) 24 hrs and 96 hrs after intraperitoneal injection of CCL4 at 4 ml/kg compared to baseline levels in uninjected animals (0 hrs).
Rodent models of Acute Liver Failure.
The large majority of animals in this group were transiently ill but rapidly regained vigor. […] A dose of 4 ml/kg would result in about 60% to 100% mortality among the animals over the course of three to seven days. Slight adjustments in the dose (i.e., 4.5 ml/kg) at this level would have obvious effects on mortality with all animals succumbing within 24-48 hours.
A dose of 4 ml/kg was eventually selected for the final model. Mortality with this dose was typically about 80% around five days and was preceded by a significant elevation in serum transaminases. AST and ALT levels peaked at approximately 5,000 on day one to two after injury (FIG. 1B).

[4] = CCl4 4 ml/kg, day one to two after injury

| Molecule | mobilization of HSCs to the periphery (CD34+ cells / HSCs) | peripheral CD34+ absolute count ([1]; one hour) [cells/ml] | total lymphocyte count ([1]; one hour) | peripheral CD34+ absolute count ([1]; six hours) [cells/ml] | total lymphocyte count ([1]; six hours) | average total WBC ([1]; 1 hour) | average total WBC ([1]; 6 hours) | anti-HIV efficacy in vivo [2] | time of peak CD34+ cell levels ([3]; after subcutaneous injection) [h] | difference in number of CD34+ cells between 1 mg/kg and 2 mg/kg ([3]; at 2, 3 and 6 hours after injection) | absolute number of CD34+ cells per ml blood ([3]; subcutaneous injection, time-dependent) | affinity of mutated receptor relative to affinity in CXCR4 (CXCR4 receptor) [fold] | increase in affinity after introduction of Glu at VII:06 and removal of Lys at VII:02 (CXCR4 receptor) [fold] | mortalities per ten animals (C57BL/6 mice; CCl4 2 ml/kg intraperitoneal, within first one to two days) | mortality (C57BL/6 mice; CCl4 4 ml/kg, around five days) | peak serum ALT level (C57BL/6 mice; [4]) | peak serum AST level (C57BL/6 mice; [4]) | time within which all animals succumbed (C57BL/6 mice; CCl4 4.5 ml/kg) [h] |
| --- | --- | --- | --- | --- | --- | --- | --- | --- | --- | --- | --- | --- | --- | --- | --- | --- | --- | --- |
| c1cc(CN2CCCNCCNCCCNCC2)ccc1CN1CCCNCCNCCCNCC1 [plerixafor, 1,1′-[1,4-phenylenebis(methylene)]bis-1,4,8,11-tetraazacyclo-tetradecane] | massive mobilization | 333 | 4,400 | 135 | 4,800 | 6,100 | 7,300 | not an effective anti-HIV agent | 3 | no significant difference | significantly increased | ≤ 10 | 1000 | – | – | – | – | – |
| ClC(Cl)(Cl)Cl [CCL4, carbon tetrachloride] | – | – | – | – | – | – | – | – | – | – | – | – | – | one or two | about 80% | approximately 5,000 | approximately 5,000 | 24 to 48 |
| B1 | – | 216 | 2,000 | 238 | 4,100 | 3,300 | 7,800 | – | – | – | – | – | – | – | – | – | – | – |

Reference: patent US10086045B2, “Methods of treatment using stem cell mobilizers” (THE JOHNS HOPKINS UNIVERSITY, priority 2010, dated 2018)
